Reference: patent US10981926B2 (Janssen Pharmaceutica NV, priority 2016, dated 2021)

Key:
[1] = test system: rGABA-gated Cl− channel; experiment: GABA-Gated Cl Channel Antagonist Radioligand Binding Assay; set-up: species or system rat; details: 10 μM single point, [35S]-TBPS, cerebral cortex membrane homogenates
Method: GABA-gated C1 Chanel assays were performed at CEREP according to the following method. Membrane homogenates of cerebral cortex (120 μg protein) were incubated for 120 min at 22° C. with 3 nM […] in the absence or presence of the test compound in a buffer containing 50 mM Na2HPO4/KH2PO4 (pH 7.4) and 500 mM NaCl. Nonspecific binding was determined in the presence of 20 μM picrotoxinin. Following incubation, the samples were filtered rapidly under vacuum through glass fiber filters (GF/B, Packard) presoaked with 0.3% PEI and rinsed several times with ice-cold 50 mM Tris-HCl using a 96-sample cell harvester (Unifilter, Packard). The filters were dried then counted for radioactivity in a scintillation counter (Topcount, Packard) using a scintillation cocktail (Microscint 0, Packard). The results are expressed as a percent inhibition of the control radio ligand specific binding. The standard reference compound is picrotoxinin, which was tested in each experiment at several concentrations to obtain a competition curve from which its IC50 was calculated. In this assay, the following representative compounds disclosed herein had recorded activities at a 10 μM single point concentration in the GABA-gated Cl— Channel Binding Assay.

[2] = molecular target: T1, wild-type Androgen Receptor (AR-wt) (Homo sapiens (Human), UniProt P10275); experiment: LNCaP-AR-wt ANT reporter assay (antagonist mode); assay type: cell-based; details: for LNCaP-AR-wt ANT pIC50 / IC50: pIC50 = −Log10(IC50 in Molar); for Emax: read-out: LNCaP-AR-wt ANT MAX % Inh; for IC50: read-out: LNCaP-AR-wt ANT pIC50 (converted)
T1 sequence (P10275 whole entry): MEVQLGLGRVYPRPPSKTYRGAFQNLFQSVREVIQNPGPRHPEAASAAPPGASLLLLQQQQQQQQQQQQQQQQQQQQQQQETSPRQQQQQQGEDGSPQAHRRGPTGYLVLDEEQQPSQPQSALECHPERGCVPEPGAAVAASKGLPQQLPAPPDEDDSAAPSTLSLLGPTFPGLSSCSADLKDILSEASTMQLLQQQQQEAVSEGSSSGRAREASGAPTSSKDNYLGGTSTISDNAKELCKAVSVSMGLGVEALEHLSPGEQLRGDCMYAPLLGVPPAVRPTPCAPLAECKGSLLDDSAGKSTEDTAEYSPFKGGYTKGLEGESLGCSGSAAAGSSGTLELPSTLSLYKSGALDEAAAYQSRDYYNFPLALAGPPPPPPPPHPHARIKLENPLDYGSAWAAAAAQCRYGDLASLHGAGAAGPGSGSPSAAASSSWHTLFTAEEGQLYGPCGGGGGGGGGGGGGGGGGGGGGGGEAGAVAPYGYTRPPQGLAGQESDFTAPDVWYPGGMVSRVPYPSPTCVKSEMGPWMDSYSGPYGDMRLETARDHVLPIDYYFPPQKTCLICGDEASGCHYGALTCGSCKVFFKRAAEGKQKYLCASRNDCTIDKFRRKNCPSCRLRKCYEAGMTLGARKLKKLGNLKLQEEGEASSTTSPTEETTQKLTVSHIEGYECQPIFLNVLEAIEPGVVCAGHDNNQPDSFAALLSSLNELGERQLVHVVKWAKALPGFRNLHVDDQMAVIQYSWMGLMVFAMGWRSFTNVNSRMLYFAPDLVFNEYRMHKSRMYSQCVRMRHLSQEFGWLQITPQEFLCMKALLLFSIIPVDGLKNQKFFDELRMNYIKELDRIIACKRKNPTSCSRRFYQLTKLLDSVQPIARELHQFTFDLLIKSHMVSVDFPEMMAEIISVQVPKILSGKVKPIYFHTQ

[3] = molecular target: T2, F876L mutant Androgen Receptor (AR-F876L) (Homo sapiens (Human), UniProt P10275, F877L); experiment: LNCaP-AR-F876L AG reporter assay (agonist mode); assay type: cell-based; details: for LNCaP-AR-F876L AG pEC50 / EC50: pEC50 = −Log10(EC50 in Molar); for Emax: read-out: LNCaP-AR-F876L AG MAX % Stim; for EC50: read-out: LNCaP-AR-F876L AG pEC50 (converted)
T2 sequence (P10275 whole entry F877L): as the sequence (P10275 whole entry) above, with F877L counted along it

[4] = molecular target: T2, F876L mutant Androgen Receptor (AR-F876L); experiment: LNCaP-AR-F876L ANT reporter assay (antagonist mode); assay type: cell-based; details: for IC50: read-out: LNCaP-AR-F876L ANT pIC50 (converted); for Emax: read-out: LNCaP-AR-F876L ANT MAX % Inh
[5] = molecular target: T1, wild-type Androgen Receptor (AR-wt); experiment: LNCaP-AR-wt AG reporter assay (agonist mode); assay type: cell-based; details: for LNCaP-AR-wt AG pEC50 / EC50: pEC50 = −Log10(EC50 in Molar); for Emax: read-out: LNCaP-AR-wt AG MAX % Stim; for EC50: read-out: LNCaP-AR-wt AG pEC50 (converted)
[6] = maximum % inhibition of R1881 control response over the tested concentration range
[7] = maximum % stimulation (agonist response) over the tested concentration range
[8] = antagonist mode, pIC50 = −Log10(IC50 in Molar)
[9] = antagonist mode, maximum % inhibition of R1881 control response over tested concentration range
[10] = agonist mode, maximum % stimulation over tested concentration range

| SMILES | rGABA-gated Cl− channel % inh @10 μM [1] | Emax [2, 6] | Emax [3, 7] | IC50 [4, 8] | Emax [4, 6] | Emax [5, 7] | IC50 ([2]; antagonist mode) | EC50 ([3]; agonist mode) | EC50 ([5]; agonist mode) | also measured |
| --- | --- | --- | --- | --- | --- | --- | --- | --- | --- | --- |
| CN1[C@@H]2CC[C@H]1C[C@H](Oc1ccc(N3C(=S)N(c4cnc(C#N)c(C(F)(F)F)c4)C(=O)C34CCC4)cc1)C2 [Cpd 52, 5-[8-[4-[[(1R,3s,5S)-8-methyl-8-azabicyclo[3.2.1]octan-3-yl]oxy]phenyl]-5-oxo-7-thioxo-6,8-diazaspiro[3.4]octan-6-yl]-3-(trifluoromethyl)pyridine-2-carbonitrile] | 13.1% | 98.3% | 0.8% | 43.7 nM | 98.9% | 2.8% | – | – | – | LNCaP-AR-wt ANT pIC50 ([2]; antagonist mode): 6.76; LNCaP-AR-F876L AG pEC50 ([3]; agonist mode): <4.82; LNCaP-AR-wt AG pEC50 ([5]; agonist mode): <4.82 |
| Cc1cc(N2C(=O)C3(CCC3)N(c3ccc(OC4CCN(CC(F)(F)F)CC4)nc3)C2=S)cnc1C#N [Cpd 62, 3-methyl-5-[5-oxo-7-thioxo-8-[6-[[1-(2,2,2-trifluoroethyl)-4-piperidyl]oxy]-3-pyridyl]-6,8-diazaspiro[3.4]octan-6-yl]pyridine-2-carbonitrile] | 61.0% | 100% | 0.2% | 26.9 nM | 98.4% | 0.5% | 38 nM | > 15100 nM | > 15100 nM | – |
| COc1cc(N2C(=O)C3(CCC3)N(c3ccc4c(cnn4C4CCN(CCO)CC4)c3)C2=S)cnc1C#N [Cpd 225, 5-[8-[1-[1-(2-hydroxyethyl)-4-piperidyl]indazol-5-yl]-5-oxo-7-thioxo-6,8-diazaspiro[3.4]octan-6-yl]-3-methoxy-pyridine-2-carbonitrile] | 18.6% | – | – | 209 nM | – | – | 339 nM | > 15100 nM | > 15100 nM | Emax [2, 9]: 101%; Emax [3, 10]: 0.5%; Emax [4, 9]: 100%; Emax [5, 10]: 0.4% |
| C#CCN1CCC(Oc2ccc(N3C(=S)N(c4cnc(C#N)c(C(F)(F)F)c4)C(=O)C34CCC4)cn2)CC1 [Cpd 104, 5-[5-oxo-8-[6-[(1-prop-2-ynyl-4-piperidyl)oxy]-3-pyridyl]-7-thioxo-6,8-diazaspiro[3.4]octan-6-yl]-3-(trifluoromethyl)pyridine-2-carbonitrile] | 98.9% | 101% | 0.7% | 41.7 nM | 99.6% | 0.5% | 69.2 nM | > 15100 nM | > 15100 nM | – |
| CN1CCC(Oc2ccc(N3C(=S)N(c4cnc(C#N)c(Cl)c4)C(=O)C34CCC4)cc2)CC1 [Cpd 24, 3-chloro-5-[8-[4-[(1-methyl-4-piperidyl)oxy]phenyl]-5-oxo-7-thioxo-6,8-diazaspiro[3.4]octan-6-yl]pyridine-2-carbonitrile] | 25.4% | 101% | 0.5% | 83.2 nM | 101% | 0.6% | 170 nM | > 15100 nM | > 15100 nM | – |
| N#Cc1ncc(N2C(=O)C3(CCC3)N(c3ccc(OC4CC5(CNC5)C4)cc3)C2=S)cc1C(F)(F)F [Cpd 86, 5-[8-[4-(6-azaspiro[3.3]heptan-2-yloxy)phenyl]-5-oxo-7-thioxo-6,8-diazaspiro[3.4]octan-6-yl]-3-(trifluoromethyl)pyridine-2-carbonitrile] | 15.3% | 100% | 0.1% | 75.9 nM | 99.7% | 0% | 123 nM | > 15100 nM | > 15100 nM | – |
| N#Cc1ncc(N2C(=O)C3(CCC3)N(c3ccc4c(c3)CCNC4)C2=S)cc1C(F)(F)F [Cpd 108, 5-(8-oxo-5-(1,2,3,4-tetrahydroisoquinolin-6-yl)-6-thioxo-5,7-diazaspiro[3.4]octan-7-yl)-3-(trifluoromethyl)picolinonitrile] | 17.1% | 98.3% | 0.2% | 1020 nM | 94.8% | 0.7% | 1660 nM | > 15100 nM | > 15100 nM | – |
| COCCn1cc2cc(N3C(=S)N(c4cnc(C#N)c(Cl)c4)C(=O)C34CCC4)ccc2n1 [Cpd 169, 3-chloro-5-[8-[2-(2-methoxyethyl)indazol-5-yl]-5-oxo-7-thioxo-6,8-diazaspiro[3.4]octan-6-yl]pyridine-2-carbonitrile] | 80.8% | 99.6% | 0.2% | 112 nM | 100% | 0.2% | 186 nM | > 15100 nM | > 15100 nM | – |
| CC1COC(COc2ccc(N3C(=S)N(c4cnc(C#N)c(C(F)(F)F)c4)C(=O)C34CCC4)cc2)CN1 [Cpd 91, (R,S),(R,S)-5-[8-[4-[(5-methylmorpholin-2-yl)methoxy]phenyl]-5-oxo-7-thioxo-6,8-diazaspiro[3.4]octan-6-yl]-3-(trifluoromethyl)pyridine-2-carbonitrile] | 36.7% | – | – | – | – | – | – | – | – | LNCaP-AR-wt ANT pIC50 ([2]; antagonist mode): 7.33; LNCaP-AR-wt ANT MAX % Inh [2, 6]: 98.3%; LNCaP-AR-F876L AG pEC50 ([3]; agonist mode): <4.82; LNCaP-AR-F876L AG MAX % Stim [3, 7]: 0.4%; LNCaP-AR-F876L ANT pIC50 [4, 8]: 7.49; LNCaP-AR-F876L ANT MAX % Inh [4, 6]: 98.6%; LNCaP-AR-wt AG pEC50 ([5]; agonist mode): <4.82; LNCaP-AR-wt AG MAX % Stim [5, 7]: 0.6% |
| CN1CCC(Oc2ccc(N3C(=S)N(c4cnc(C#N)c(C(F)F)c4)C(=O)C34CCC4)cc2)CC1 [Cpd 41, 3-(difluoromethyl)-5-[8-[4-[(1-methyl-4-piperidyl)oxy]phenyl]-5-oxo-7-thioxo-6,8-diazaspiro[3,4]octan-6-yl]pyridine-2-carbonitrile] | 20.4% | 99.3% | 0.1% | 257 nM | 99.9% | 0.1% | 427 nM | > 15100 nM | > 15100 nM | – |
| CCOC(=O)N1CCC(CNC(=O)c2ccc(N3C(=S)N(c4cnc(C#N)c(C(F)(F)F)c4)C(=O)C34CCC4)cc2)CC1 [Cpd 49, ethyl 4-[[[4-[6-[6-cyano-5-(trifluoromethyl)-3-pyridyl]-5-oxo-7-thioxo-6,8-diazaspiro[3.4]octan-8-yl]benzoyl]amino]methyl]piperidine-1-carboxylate] | 86.4% | 101% | 0.4% | 56.2 nM | 99.5% | 0.3% | 105 nM | > 15100 nM | > 15100 nM | – |
| Cc1cc(N2C(=O)C3(CCC3)N(c3ccc(OC4CCN(C5CC5)CC4)cc3)C2=S)cnc1C#N [Cpd 35, 5-[8-[4-[(1-cyclopropyl-4-piperidyl)oxy]phenyl]-5-oxo-7-thioxo-6,8-diazaspiro[3.4]octan-6-yl]-3-methyl-pyridine-2-carbonitrile] | 49.9% | 100% | 0.3% | 372 nM | 99.5% | 0.2% | 912 nM | > 15100 nM | > 15100 nM | – |
| N#Cc1ncc(N2C(=O)C3(CCC3)N(c3ccc(CC4CCNCC4)cc3)C2=S)cc1C(F)(F)F [Cpd 234, 5-[5-oxo-8-[4-(4-piperidylmethyl)phenyl]-7-thioxo-6,8-diazaspiro[3.4]octan-6-yl]-3-(trifluoromethyl)pyridine-2-carbonitrile] | 57.4% | – | – | 257 nM | – | – | 479 nM | > 15100 nM | > 15100 nM | Emax [2, 9]: 100%; Emax [3, 10]: 0%; Emax [4, 9]: 102%; Emax [5, 10]: 0.1% |
